Measured values taken from patent US8163767B2, “Heterocyclic Janus Kinase 3 inhibitors” (Astellas Pharma Inc., priority 2005, dated 2012).

Target: T1, human JAK3 (Homo sapiens, UniProt P52333)
T1 construct: His (N); purchased Carna Bioscience Inc. (Kobe, Japan); host or cells: baculovirus expression system
Experiment: Determination of Janus Kinase 3 (JAK3) inhibitory activity
Format: biochemical
Conditions: read-out: IR (JAK3 inhibition rate)
Description: Test 1: Determination of Janus Kinase 3 (JAK3) Inhibitory Activity
The assay for JAK3 activity was performed basically according to the method as proposed by Okimoto et al, as follows.
Purified kinase domain (KD) of human JAK3 was purchased from Carna Bioscience Inc. (Kobe, Japan). 796-1124 (end) amino acids of human JAK3 [accession number #NM_000215] was expressed as N-terminal His-tagged protein (41 kDa) using the baculovirus expression system and purified by using Ni-NTA affinity chromatography.
Biotin-Lyn-Substrate-peptide and ATP were used as substrates. Assay buffer consisted of 15 mM Tris-HCl pH7.5, 0.01% Tween 20 and 2 mM DTT. For the standard assay, 20 μL of substrate solution (Assay buffer containing 627 nM Biotin-Lyn-Substrate-2, 20 μM ATP and 25 mM MgCl2), 10 μL of assay buffer containing test compound and 20 μL of enzyme solution were added to the plate and mixed well.
After 1 hour incubation at ambient temperature, the plate was washed 4 times with wash buffer (50 mM Tris-HCl pH 7.5, 150 mM NaCl, 0.02% Tween 20), and then blocking buffer (wash buffer containing 0.1% Bovine serum albumin) was added to the plate. After 30 minutes incubation at ambient temperature, blocking buffer was removed and HRP-PY-20 solution (HRP-PY-20 500 times diluted with blocking buffer) was added. After 30 minutes incubation at ambient temperature, the plate was washed 4 times and TMB substrate solution (Sigma) was added to the plate. After 4 minutes incubation at ambient temperature, 1 M H2SO4 was added to the plate to stop the reaction. Enzyme activity was measured as optical density at 450 nm.

T1 sequence (P52333 796-1124): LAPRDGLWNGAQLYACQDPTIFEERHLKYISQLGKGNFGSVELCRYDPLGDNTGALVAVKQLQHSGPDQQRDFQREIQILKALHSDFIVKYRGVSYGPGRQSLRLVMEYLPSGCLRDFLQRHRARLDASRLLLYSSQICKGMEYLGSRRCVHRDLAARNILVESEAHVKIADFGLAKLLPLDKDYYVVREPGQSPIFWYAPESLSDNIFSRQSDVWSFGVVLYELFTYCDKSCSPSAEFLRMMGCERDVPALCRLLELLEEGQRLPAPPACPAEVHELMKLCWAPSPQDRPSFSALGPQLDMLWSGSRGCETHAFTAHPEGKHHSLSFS

Row | inhibition at 0.01 µM (test compound 10^−8M) [%] | inhibition at 10 µM (test compound 10^−5M) [%] | Compound
1 | > 50 | – | C[C@@H]1CCN(c2ccc(C#N)cn2)C[C@@H]1n1c(=O)[nH]c2cnc3[nH]ccc3c21 (relative stereo) [Example 323, rel-6-[(3R,4R)-4-Methyl-3-(2-oxo-3,6-dihydroimidazo[4,5-d]-pyrrolo[2,3-b]pyridin-1(2H)-yl)piperidin-1-yl]nicotinonitrile]
2 | – | > 50 | C[C@@H]1CCCC[C@@H]1Nc1c(C#N)cnc2[nH]ccc12 [Example 15, 4-{[(1S,2R)-2-Methylcyclohexyl]amino}-1H-pyrrolo[2,3-b]-pyridine-5-carbonitrile]
